Experimental data reported in PubChem BioAssay (NCI).
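Growth conditions: 96-well plates. Treatment: test compound, 48 hours, 5 concentrations. Analysis: linear interpolation between bracketing concentrations; unreached endpoints set to highest concentration. Here, GI50 denotes the concentration required for 50% inhibition of growth. Definition used: TGI = concentration required for complete inhibition of growth.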

Assays:
Experiment in all cases: NCI tumour cell line growth inhibition, 48 h
SK-MEL-5 melanoma = system: SK-MEL-5 melanoma
IGROV1 ovarian = system: IGROV1 ovarian
HOP-62 NSCLC = system: HOP-62 NSCLC
UO-31 renal = system: UO-31 renal
MDA-MB-435 = system: MDA-MB-435
BT-549 breast = system: BT-549 breast
OVCAR-4 ovarian = system: OVCAR-4 ovarian
OVCAR-8 ovarian = system: OVCAR-8 ovarian
NCI-H23 lung = system: NCI-H23 lung
KM12 colon = system: KM12 colon

Row | SMILES | GI50 (SK-MEL-5 melanoma) [µM] | TGI (SK-MEL-5 melanoma) [µM] | GI50 (IGROV1 ovarian) [µM] | TGI (IGROV1 ovarian) [µM] | GI50 (HOP-62 NSCLC) [µM] | TGI (HOP-62 NSCLC) [µM] | GI50 (UO-31 renal) [µM] | TGI (UO-31 renal) [µM] | GI50 (MDA-MB-435) [µM] | TGI (MDA-MB-435) [µM] | GI50 (BT-549 breast) [µM] | TGI (BT-549 breast) [µM] | GI50 (OVCAR-4 ovarian) [µM] | TGI (OVCAR-4 ovarian) [µM] | GI50 (OVCAR-8 ovarian) [µM] | TGI (OVCAR-8 ovarian) [µM] | GI50 (NCI-H23 lung) [µM] | TGI (NCI-H23 lung) [µM] | TGI (KM12 colon) [µM] | GI50 (KM12 colon) [µM]
1 | N#Cc1c(N)nn(C(=O)c2ccc(NC(=O)c3ccccn3)cc2)c1-c1ccc(Cl)cc1 | 7.15 | > 100 | 2.63 | 16.8 | 2.53 | 8.37 | 1.79 | 5.27 | 4.81 | > 100 | 4.86 | > 100 | 2.33 | 6.02 | 3.38 | 17.7 | 3.77 | 34.8 |  | 
2 | N/C(=N\N=C\c1ccc2c(c1)OCO2)NO |  | 35.2 |  | 88.3 |  | 66.7 |  |  |  | > 100 |  |  |  | > 100 |  | 40 |  | 98.8 | 63.6 | 
3 | C=CCCc1cc(OC)ccc1CN(C)C(C)(C)CO |  | > 100 |  | > 100 |  | > 100 |  |  |  |  |  |  |  | > 100 |  | > 100 |  | > 100 | > 100 | 
4 | COc1ccc(CCNc2nc3ccccc3c3[nH]c4ccccc4c23)cc1OC | 1.8 | 3.21 |  |  | 10.9 | 24.4 |  |  | 1.72 | 3.37 | 12.1 | 26.3 | 3.15 | 12.8 | 2.02 | 5.54 | 10.4 | 24.6 | 3.58 | 1.53
5 | COc1ccc(NC(=O)CC/C(CC(=O)c2ccco2)=N/Nc2ccc([N+](=O)[O-])cc2[N+](=O)[O-])cc1 |  | > 100 |  | > 100 |  | > 100 |  | > 100 |  |  |  |  |  | > 100 |  | > 100 |  | > 100 | > 100 | 
6 | COc1ccc(C(=O)c2cc3c(N)c(C(=O)Nc4cccc(Cl)c4)sc3nc2C)cc1 | 0.92 | 2.6 | 1.76 | > 33.3 | 2.24 | > 33.3 | 2.5 | > 33.3 |  |  | 7.69 | > 33.3 | 9.48 | > 33.3 | 1.89 | > 33.3 | 2.53 | > 33.3 | > 33.3 | 1.25
7 | Cn1cc(-c2ccc3cc(-c4ccc(CC(=O)Nc5cc(C(C)(C)C)nn5C)cc4)cnc3c2)cn1 | 0.227 | 0.585 | 0.063 | > 100 | 0.409 | > 100 |  |  | 0.309 | > 100 | 0.262 | 2.38 | 0.159 | > 100 | 0.274 | > 100 | 0.407 | > 100 | > 100 | 0.0233
8 | CC(=O)Oc1c(-c2ccccc2)[nH]c2cc([N+](=O)[O-])c(/C(Cl)=C/c3ccccc3)cc12 |  | 3.75 |  | 65.8 |  | 61.5 |  | 27.6 |  |  |  |  |  | 39.3 |  | 17.7 |  | 11.6 | 16.3 | 
